Assay results: ChEMBL document CHEMBL5303304, “EUbOPEN Chemogenomics Library - IncuCyte” (2023)

Assays:
Type in all cases: toxicity, cell-based
Fibroblast = test: Incucyte cell viability with human fibroblast; details: 10 µM, compound concentration 10 uM
HEK-293T = test: Incucyte cell viability with HEK293T; details: human, 10 µM, compound concentration 10 uM
U2OS = test: Incucyte cell viability with U2OS; details: human, 10 µM, compound concentration 10 uM
Further: unitless GR value; below 1 slowed growth and below 0 cell loss.

Row | SMILES | Growth Rate (Fibroblast; 6 h, replicate number 1) | Growth Rate (Fibroblast; 12 h, replicate number 1) | Growth Rate (Fibroblast; 18 h, replicate number 1) | Growth Rate (Fibroblast; 18 h, replicate number 2) | Growth Rate (Fibroblast; 24 h, replicate number 1) | Growth Rate (Fibroblast; 24 h, replicate number 2) | Growth Rate (HEK-293T; 6 h, replicate number 1) | Growth Rate (HEK-293T; 6 h, replicate number 2) | Growth Rate (HEK-293T; 12 h, replicate number 1) | Growth Rate (HEK-293T; 12 h, replicate number 2) | Growth Rate (HEK-293T; 18 h, replicate number 1) | Growth Rate (HEK-293T; 18 h, replicate number 2) | Growth Rate (HEK-293T; 24 h, replicate number 1) | Growth Rate (HEK-293T; 24 h, replicate number 2) | Growth Rate (U2OS; 12 h, replicate number 1) | Growth Rate (U2OS; 12 h, replicate number 2) | Growth Rate (U2OS; 18 h, replicate number 1) | Growth Rate (U2OS; 24 h, replicate number 1) | Growth Rate (U2OS; 24 h, replicate number 2) | Growth Rate (Fibroblast; 12 h, replicate number 2) | further results
1 | COc1ccccc1-c1cc(Nc2cccc(CS(N)(=O)=O)c2)ncn1 | 0.43 | 0.63 | 0.61 | 0.93 | 0.52 | 0.59 | -0.26 | -0.38 | -0.07 | -0.15 | 0.16 | 0.21 | 0.38 | 0.33 | 0.51 | 0.46 | 0.22 | 0.46 | 0.49 |  | Growth Rate (Fibroblast; 0 h, replicate number 2): -0.71; Growth Rate (U2OS; 6 h, replicate number 1): 0.81; Growth Rate (U2OS; 6 h, replicate number 2): 0.46; Growth Rate (U2OS; 18 h, replicate number 2): 0.43
2 | Cc1cc(-c2nc(-c3ccc(OC(F)(F)F)cc3)no2)nn1Cc1ccnc(N2CCN(C3CC3)CC2)c1 | 0.9 | 0.3 | 0.22 | 0.2 | 0.26 | 0.5 | 0.47 | -0.22 | 0.32 | 0.08 | 0.25 | 0.18 | 0.37 | 0.3 | 0.94 | 0.51 |  | 0.88 | 0.71 | 0.36 | Growth Rate (Fibroblast; 0 h, replicate number 1): -1; Growth Rate (U2OS; 18 h, replicate number 2): 0.61
3 | CN(C)C/C=C/C(=O)Nc1cccc(S(=O)(=O)N2CCC(NC(=O)c3n[nH]cc3NC(=O)c3c(Cl)cc(Cl)cc3Cl)CC2)c1 |  | 0.8 | 0.26 | 0.09 | 0.12 | -0.13 | -0.58 | -0.85 | -0.49 | -0.7 | -0.34 | -0.61 | -0.05 | -0.34 | 0.1 | -0.3 | -0.42 | -0.51 | -0.42 | 0.45 | Growth Rate (Fibroblast; 6 h, replicate number 2): 0.98; Growth Rate (U2OS; 6 h, replicate number 2): 0.35; Growth Rate (U2OS; 18 h, replicate number 2): -0.38
4 | CC(C)(C)c1cnc(CSc2cnc(NC(=O)C3CCN(CC(=O)NCCOCCOCCOCCNc4cccc5c4C(=O)N(C4CCC(=O)NC4=O)C5=O)CC3)s2)o1 (stereo unspecified) | 0.1 | -0.04 | -0.02 | -0.15 | 0.11 | -0.12 | -0.56 | -0.74 | -0.47 | -0.62 | -0.38 | -0.5 | -0.29 | -0.39 | 0.31 | 0.19 | 0.16 | -0.05 | -0.04 | -0.09 | Growth Rate (Fibroblast; 0 h, replicate number 1): -0.99; Growth Rate (Fibroblast; 6 h, replicate number 2): 0.11; Growth Rate (U2OS; 0 h, replicate number 2): 0.98; Growth Rate (U2OS; 6 h, replicate number 1): 0.29; Growth Rate (U2OS; 6 h, replicate number 2): 0.25; Growth Rate (U2OS; 18 h, replicate number 2): -0.02
5 | CC(C)(C)c1cc(NC(=O)c2csc(Nc3ccccn3)n2)no1 | 0.76 | 0.84 | 0.21 | 0.35 | 0.31 | 0.35 | -0.14 | -0.51 | 0.04 | -0.02 | 0.08 | 0.01 | 0.31 | 0.2 | 0.72 | 0.69 | 0.81 | 0.65 | 0.97 | 0.03 | Growth Rate (Fibroblast; 6 h, replicate number 2): -0.67; Growth Rate (U2OS; 0 h, replicate number 1): 0.58; Growth Rate (U2OS; 6 h, replicate number 1): 0.51
6 | CC(C)c1cnn2c(NCc3ccccc3)cc(NCCCCCCN)nc12.Cl | 0.36 | 0.36 | 0.9 | 0.69 | 1 | 0.87 | -0.19 | -0.03 | 0.25 | 0.46 | 0.64 | 0.6 | 0.65 | 0.66 | 0.99 | 0.78 | 0.92 | 0.87 | 0.71 | 0.65 | Growth Rate (Fibroblast; 0 h, replicate number 2): -0.08; Growth Rate (Fibroblast; 6 h, replicate number 2): 0.27; Growth Rate (U2OS; 0 h, replicate number 2): 0.64; Growth Rate (U2OS; 6 h, replicate number 2): 0.69; Growth Rate (U2OS; 18 h, replicate number 2): 0.76
7 | CC(=O)c1c(C)c2cnc(Nc3ccc(N4CCN(CCCCNC(=O)COc5cccc6c5C(=O)N(C5CCC(=O)NC5=O)C6=O)CC4)cn3)nc2n(C2CCCC2)c1=O (stereo unspecified) | 0.72 |  |  |  | 0.88 |  | 0.75 |  | 0.82 | 0.85 | 0.85 | 0.98 | 0.91 |  | 0.99 |  |  | 1 |  |  | Growth Rate (Fibroblast; 0 h, replicate number 2): 0.14; Growth Rate (U2OS; 0 h, replicate number 2): 0.65; Growth Rate (U2OS; 6 h, replicate number 2): 0.97
8 | Cc1c(CN2CCC3(CC2)CN(c2ncnc4sc(CC(F)(F)F)cc24)C3)ccc2c1cc(C#N)n2CC(N)=O | -0.45 | -0.4 | -0.16 | -0.22 | -0.05 | 0.09 | 0.58 | -0.05 | 0.59 | 0.34 | 0.63 | 0.44 | 0.69 | 0.47 |  |  |  | 0.94 |  | -0.34 | Growth Rate (Fibroblast; 0 h, replicate number 1): -1; Growth Rate (Fibroblast; 6 h, replicate number 2): -0.88; Growth Rate (U2OS; 0 h, replicate number 2): 0.3; Growth Rate (U2OS; 6 h, replicate number 1): 1
9 | CCCNc1ccc2ncc(-c3ccncc3)n2n1 | 0.14 | 0.2 | 0.11 | 0.04 | 0.13 | 0.09 | -0.19 | -0.3 | -0.26 | -0.13 | -0.11 |  | 0.02 | -0.01 | 0.48 |  | 0.14 | 0.15 | 0.45 | 0.09 | Growth Rate (Fibroblast; 0 h, replicate number 2): 0.59; Growth Rate (Fibroblast; 6 h, replicate number 2): 0.27; Growth Rate (U2OS; 0 h, replicate number 1): -1; Growth Rate (U2OS; 6 h, replicate number 1): 0.96; Growth Rate (U2OS; 18 h, replicate number 2): 0.66
